Results published in patent US20050042714A1, “Glycoconjugates of sialic acid derivates, methods for their production and use thereof” (priority 2001, published 2005).

Assays:
[1] = tested on: B-lymphotropic papovavirus (LPV) in BJA-B K20 cells; experiment: LPV infection of analogue-treated hyposialylated cells (VP1 ELISA, T-antigen immunofluorescence); assay type: cell-based, human; details: BJA-B K20 cells (statement also covers K88 cells)
Experimental: Changes in permissivity for the sialic acid-dependent B-lymphotropic papovavirus (LPV) in hyposialylated (K20) and normally sialylated (K88) BJA-B cells after treatment with sialic acid analogues. Cells were treated with analogues or NeuAc for 3d. 50 h post LPV inoculation the LPV infection was quantified (A) by detecting the amount of LPV VP1 in cell lysates relative to the total protein content by ELISA and (B) by indirect immunofluorescence microscopy as percentage of LPV T-antigen-positive BJA-B K20 cells. A, values are given as arithmetic means±SD of three independent experiments. B, representatives of three experiments are shown. DAPI-staining (left) indicates the total amount of cells in the section, on the right LPV T-antigen positive cells are shown with the average percentage given beside. […]
BJA-B subclones were infected with the B-lymphotropic papovavirus (LPV) as described (Keppler, O. T., Herrmann, M., Oppenländer, M., Meschede, W., and Pawlita, M. (1994) J Virol 68(11), 6933-9). […] LPV infection was quantified by indirect immunofluorescence microscopy as percentage of LPV T-antigen positive cells and the amount of LPV VP1 in cell lysates was determined by ELISA relative to the total protein extracted.

HL60-I cells = experiment: metabolic complementation assay: lectin staining (VVA, LFA, TLM) of analogue-treated cells by flow cytometry; assay type: cell-based, human; details: 5 mM, 24 h
Experimental: Medium supplementation with some synthetic sialic acid analogues restores cell surface sialylation in hyposialylated HL60-I cells. Cells were cultivated in the presence of indicated synthetic sialic acid analogue (5 mM) for 24 h and stained with either directly fluorochrome-coupled lectins (VVA, LFA) or biotin-coupled lectin (TLM) and streptavidin-FITC and analyzed by flow cytometry. Values are given as “relative factor of change” (RFC) of the “mean fluorescence intensity” (MFI) of sialic acid-treated cells relative to untreated cells. The bars represent arithmetic means±SD (n^34) of one (x) or ≧two experiments.
To test whether cells can incorporate synthetic sialic acid analogues from the culture medium, a metabolic complementation assay was performed on endogenously hyposialylated, UDP-GlcNAc-2-epimerase-deficient HL60-I cells.
Cells were cultivated for 24 h in the presence of one of 16 different synthetic sialic acid analogues, carrying distinct C5 or C9 modifications (FIG. 1), and subsequently, changes in cell surface sialylation were assessed by flow cytometry using three fluorochrome-conjugated sialic acid-sensitive lectins. Vicia villosa agglutinin (VVA) detects GalNAc residues, and its binding sites can be masked by the addition of terminal sialic acid residues.
In sugar supplementation assays, cells seeded at 5×10^5 cells/ml in culture medium buffered with 40 mM HEPES (pH 7.2) were cultivated for 24 h in the presence or absence of 5 mM sialic acids (stocks of 100 mM dissolved in H2O, stored at 4° C.).
Lyophilized FITC-conjugated lectins Vicia villosa (VVA) was obtained from Sigma, dissolved in H2O (1 mg/ml), aliquoted and stored at −20° C. according to the manufacturer's instructions. FITC-conjugated Limax flavus agglutinin (LFA) was from EY Laboratories (San Manteo, Calif., USA) and biotin-coupled Tritrichomonas mobilensis agglutinin (TLM) from Calbiochem. Lectin staining procedure and fluorescence-activated cell scanning on a Becton Dickinson FACScan cytometer using Cellquest II software were carried out as described (Keppler, O. T., Molden-hauer, G., Oppenländer, M., Schwartz-Albiez, R., Berger, E. G., Funderud, S., and Pawlita, M. (1992) Eur J Immunol 22(11), 2777-81). Briefly, cells (3×10^5) were washed twice in cold PBS and then incubated in 100 μl PBS/0.05% NaN3, containing either fluorochrome-conjugated lectins VVA (50 μg/ml), LFA (20 μg/ml), or biotinylated TLM (20 μg/ml) for 45 min on ice in the dark. For biotinylated TLM a secondary incubation step with steptavidin-FITC (20 μg/ml) (Sigma) for 30 min on ice in the dark is required. After washing with PBS, cells were resuspended in 300 μl PBS and analyzed by flow cytometry.

Q: Which LPV-permissivity [1] does the source give for `CC(=O)N[C@H]1[C@H]([C@H](O)[C@@H](C)O)OC(O)(C(=O)O)C[C@@H]1O` (stereo partly shown) [analogue a, 5-N-acetyl-9-deoxy-neuraminic acid] here?
A: to a lesser extent

Q: And the “effect on LFA binding” value (HL60-I cells)?
A: increased binding of LFA

Q: And the “effect on TLM binding” value (HL60-I cells)?
A: increased binding

Q: What about the “effect on VVA binding” value (HL60-I cells; decrease = masking of GalNAc by sialic acid) of the same compound?
A: significantly decreased VVA-binding
